Results on 3 molecules are retold here after patent publication US20090062273A1, “3-H-pyrazolopyridines and salts thereof, pharmaceutical compositions comprising same, methods of preparing same and uses of same” (priority 2006, published 2009).

The target in experiment [1] is Tie2 (Homo sapiens, UniProt Q02763). Kind of experiment: Tie2 ELISA assay (cellular Tie2 autophosphorylation). Type of experiment: cell-based. Further details: expressed in transfected cells; host or cells: CHO (CHO Tie2/DHFR). Particulars: CHO cells stably transfected with Tie2, stimulated by angiopoietin-2; Tie2 autophosphorylation by sandwich-ELISA; read-out: Tie 2 activity (assay 1).

Experiment [2] deals with T1, human insuline receptor (Ins-R) (Homo sapiens, UniProt P06213).
T1 construct: GST-tagged recombinant kinase domain of the human insuline receptor; GST; purchased ProQinase, Freiburg, Germany; host or cells: SF-9 cells
Kind of experiment: InsR HTRF assay (selectivity vs. Tie2 assay 2). In kind it is biochemical. Particulars: IC50 assay 4/IC50 assay 2. On the procedure:
Inhibitory activity of compounds against the kinase activity of the insulin receptor was quantified employing the Ins-R HTRF assay as described in the following paragraphs.
GST-tagged recombinant kinase domain of the human insuline receptor (Ins-R, purchase from ProQinase, Freiburg, Germany) expressed in SF-9 cells was used as kinase. As substrate for the kinase reaction biotinylated poly-(Glu,Tyr) (Cis biointernational, France) was used.
Ins-R was incubated for 20 min at 22° C. in the presence of different concentrations of test compounds in 5 μl assay buffer [50 mM Hepes/NaOH pH 7, 15 mM MnCl2, 1 mM dithiothreitol, 0.1 μM sodium ortho-vanadate, 0.015% (v/v) PEG20000, 10 μM adenosine-tri-phosphate (ATP), 0.3 μg/ml substrate, 1% (v/v) dimethylsulfoxide]. The concentration of Ins-R was adjusted depending of the activity of the enzyme lot and was chosen appropriate to have the assay in the linear range, typical concentrations were in the range of 10 pg/μL. The reaction was stopped by the addition of 5 μl of a solution of HTRF detection reagents (0.1 μM streptavidine-XLent and 1 nM PT66-Eu-Chelate, an europium-chelate labelled anti-phospho-tyrosine antibody from Perkin Elmer) in an aqueous EDTA-solution (80 mM EDTA, 0.2% (w/v) bovine serum albumin in 50 mM HEPES/NaOH pH 7.0).
The resulting mixture was incubated 1 h at 22° C. to allow the binding of the biotinylated phosphorylated peptide to the streptavidine-XLent and the PT66-Eu-Chelate. Subsequently the amount of phosphorylated substrate was evaluated by measurement of the resonance energy transfer from the PT66-Eu-Chelate to the streptavidine-XLent. Therefore, the fluorescence emissions at 620 nm and 665 nm after excitation at 350 nm was measured in a HTRF reader, e.g. a Rubystar (BMG Labtechnologies, Offenburg, Germany) or a ViewLux (Perkin-Elmer). The ratio of the emissions at 665 nm and at […] was taken as the measure for the amount of phosphorylated substrate. The data were normalised (enzyme reaction without inhibitor=0% inhibition, all other assay components but no enzyme=100% inhibition) and IC50 values were calculated by a 4 parameter fit using an inhouse software.
In general terms: In TR-FRET formats the signal depends on donor and acceptor labels being close together.

T1 sequence (P06213 1023-1298 limits assumed): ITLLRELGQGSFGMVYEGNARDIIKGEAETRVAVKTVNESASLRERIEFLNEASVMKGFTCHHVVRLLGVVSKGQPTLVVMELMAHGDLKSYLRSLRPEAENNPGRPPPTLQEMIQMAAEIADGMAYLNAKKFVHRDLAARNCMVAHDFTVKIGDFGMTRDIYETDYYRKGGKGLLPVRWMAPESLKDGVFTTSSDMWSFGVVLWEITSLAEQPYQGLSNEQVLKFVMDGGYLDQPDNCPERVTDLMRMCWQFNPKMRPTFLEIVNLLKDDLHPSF
Sequence of Tie2 (Q02763 23-1124, species assumed): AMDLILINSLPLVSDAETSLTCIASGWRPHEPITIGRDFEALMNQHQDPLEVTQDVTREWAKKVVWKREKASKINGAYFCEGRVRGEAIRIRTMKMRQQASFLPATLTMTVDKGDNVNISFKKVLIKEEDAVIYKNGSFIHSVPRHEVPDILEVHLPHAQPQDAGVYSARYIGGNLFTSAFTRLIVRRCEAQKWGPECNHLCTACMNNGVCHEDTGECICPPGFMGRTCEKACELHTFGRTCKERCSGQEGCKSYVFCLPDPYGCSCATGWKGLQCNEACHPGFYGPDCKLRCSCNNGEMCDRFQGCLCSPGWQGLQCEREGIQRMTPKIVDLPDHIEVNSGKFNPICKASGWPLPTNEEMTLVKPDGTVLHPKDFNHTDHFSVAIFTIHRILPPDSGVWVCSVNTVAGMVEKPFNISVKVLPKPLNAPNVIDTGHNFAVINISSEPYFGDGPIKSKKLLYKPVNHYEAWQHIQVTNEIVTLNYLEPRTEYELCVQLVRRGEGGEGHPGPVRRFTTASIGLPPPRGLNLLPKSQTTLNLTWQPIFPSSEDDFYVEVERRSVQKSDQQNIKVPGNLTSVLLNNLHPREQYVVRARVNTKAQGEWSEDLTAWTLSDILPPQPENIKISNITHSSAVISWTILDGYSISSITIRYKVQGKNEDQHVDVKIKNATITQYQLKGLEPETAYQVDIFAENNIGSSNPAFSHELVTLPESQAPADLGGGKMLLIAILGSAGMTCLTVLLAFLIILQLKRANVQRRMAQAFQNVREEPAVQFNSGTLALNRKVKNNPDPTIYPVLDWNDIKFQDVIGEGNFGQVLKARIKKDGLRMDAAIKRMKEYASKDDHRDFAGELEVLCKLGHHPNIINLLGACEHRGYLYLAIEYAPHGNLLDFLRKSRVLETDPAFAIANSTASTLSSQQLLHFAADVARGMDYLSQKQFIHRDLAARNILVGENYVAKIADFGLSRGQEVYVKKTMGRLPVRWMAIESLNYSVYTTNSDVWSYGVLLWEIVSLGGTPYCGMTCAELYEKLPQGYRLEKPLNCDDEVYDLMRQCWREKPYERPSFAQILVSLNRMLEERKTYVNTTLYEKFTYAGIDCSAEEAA

For the molecule `Cn1ncc2c(-c3ccc(NC(=O)Nc4cc(C(C)(C)C)nn4-c4ccncc4)cc3)cncc21` [Example 15.10, 1-(5-tert-Butyl-2-pyridin-4-yl-2H-pyrazol-3-yl)-3-[4-(1-methyl-1H-pyrazolo[3,4-c]pyridin-4-yl)-phenyl]-urea], the IC50 in experiment [1] was less than 501 nM. Moreover, the “Selectivity vs. InsR” value in experiment [2] is more than 50fold.
For `Cn1ncc2c(-c3ccc(NC(=O)Nc4cc(C(C)(C)C)nn4-c4cncc(F)c4)cc3)cncc21` [Example 15.12, 1-[5-tert-Butyl-2-(5-fluoro-pyridin-3-yl)-2H-pyrazol-3-yl]-3-[4-(1-methyl-1H-pyrazolo[3,4-c]pyridin-4-yl)-phenyl]-urea], the IC50 in experiment [1] is less than 501 nM. In addition, the “Selectivity vs. InsR” value in experiment [2] is more than 50fold.
On the same counts, the results for `Cn1ncc2c(-c3ccc(NC(=O)Nc4cc(C(C)(C)C)nn4-c4cncc(F)c4)c(F)c3)cncc21` [Example 15.13, 1-[5-tert-Butyl-2-(5-fluoro-pyridin-3-yl)-2H-pyrazol-3-yl]-3-[2-fluoro-4-(1-methyl-1H-pyrazolo[3,4-c]pyridin-4-yl)-phenyl]-urea] are less than 501 nM and more than 50fold.
